Where a SMILES comes first, the peptide text is derived from it. The star is where a group is joined. Cbz = O=C(OCc1ccccc1)*; CH2F = FC*
Legend:
[1] = tested on: human U87 MG astrocytoma cells; assay: Cell viability of human U87 MG astrocytoma cells in culture; format: cell-based; settings: U-87 MG, pure cannabinoids
Description: Tetrahydrocannabinol (THC) and cannabidiol (CBD) in the form of cannabis plant extracts were dissolved in ethanol to a concentration of 100 mM this was stored at −20° C. until required.
Before use the cannabis plant extracts were further diluted to the desired concentration, ensuring that the concentration of ethanol was below 0.001%.
U87 human glioma cells were used throughout this experiment. The cells were maintained at 37° C. in a humidified atmosphere with 5% CO2 and 95% air.
Cells were cultured in a 75 cm^2 culture flask in Dulbecco's Modified Eagle Medium (DMEM), which had been supplemented with 4 mM L-glutamine, 100 units/ml penicillin, […], 1% sodium pyruvate, 1% non-essential amino acids and 10% heat-inactivated fetal bovine serum.
The viability of the human U87 MG astrocytoma cells were examined at various cannabinoid concentrations. The THC and CBD extracts were compared against pure THC and CBD.
The methods used were as described in Example 1 above.

[2] = tested on: Human U87 MG astrocytoma cells xenografted to nude mice; assay: Tumour volume of U87 MG xenografts in nude mice; format: in vivo; settings: following 15 days of treatment, 15 mg/kg per day peritumourally
Description: Human U87 MG astrocytoma cells were xenografted to nude mice and the test compounds were injected peritumourally at a concentration of 15 mg/kg per day.

[3] = tested on: U87MG cells; assay: Induced cell death with ATG1 silencing or pan-caspase inhibition; settings: pan-caspase inhibitor; FIG. 3c

| SMILES | IC50 [1] | Tumour volume relative to zero time [2] | induced cell death [3] |
| --- | --- | --- | --- |
| C=C(C)[C@@H]1CCC(C)=C[C@H]1c1c(O)cc(CCCCC)cc1O [CBD, cannabidiol] | 0.47 µM | – | – |
| CCCCCc1cc(O)c2c(c1)OC(C)(C)[C@@H]1CCC(C)=C[C@@H]21 [THC, tetrahydrocannabinol] | 0.37 µM | 5.1 ± 0.4 | – |
| CC(NC(=O)C(NC(=O)OCc1ccccc1)C(C)C)C(=O)NC(CC(=O)O)C(=O)CF (stereo not drawn) [Z-VAD] (Cbz-Val-Ala-Asp-CH2F; configuration not given here) | – | – | prevent induced cell death |

Source: patent US8632825B2, “Anti-tumoural effects of cannabinoid combinations” (GW Pharma Limited, priority 2008, dated 2014)
